Experimental data as given in patent US9963457B2, “Crystal of 5-((2-(6-amino)-9H-purin-9-yl)ethyl)amino)pentan-1-o1” (FOREVER CHEER INTERNATIONAL LIMITED, priority 2016, dated 2018).

Key:
[1] = system: bone cancer pain model in rat (Walker 256 cells); assay: Paw withdrawal thermal latency (PWL) in bone cancer pain model; type: in vivo, SD rats; conditions: 20 mg/kg, i.g.
Method: 1. Animals 50 SD rats (180-220 g), placed under a quiet and warm (22° C.) environment without strong light irradiation, having free access to feed and water.
2. Cell Culture: SD Rat homologous cancer cell strains Walker 256 preserved by the Laboratory Animal Center, Forth Military Medical
University, or a commercially available product can be used. RPMI 1640 culture medium (Gibco Inc. of US, containing 100 U/ml each of 10% fetal bovine serum, penicillin, and streptomycin) was used, and the tumor cells were incubated as suspension cells in a 37° C. incubator under 5% CO2, with the medium replaced every other day, and 2 days for 1 passage. The cells were harvested at the 3rd passage, with a cell concentration of 2×10^5/10 μl.
3. Establishment of bone cancer pain model in rat: the rats were operated at the left knee with a small incision after anesthesia (40 mg/kg of pentobarbital sodium) according to sterile surgical operation procedures, the muscle was stripped off gently and the patellar ligament is cut open to expose the distal femur, with 1 mm syringe needle inserted from the intercondylar fossa vertically into the marrow cavity, with an inserting distance no more than 5 mm to prevent punching. Then a 20 μl micro-injector was inserted into the marrow cavity to slowly inject 10 μl of a suspension containing the Walker 256 cells (2×10^5 cancer cells per 10 μl). The injector was stayed there for a few minutes after the injection, and then the needle pinhole was immediately sealed with sterile bone wax. The tumor cells leaking out of the marrow cavity were killed with 75% ethyl alcohol, and then the rat was sutured under sterile conditions layer by layer. The same operation was performed in the sham operation group, except that only the same volume of sterile saline was injected into the marrow cavity slowly.
6. Drug intervention: On day 18 after the surgical operation, the SD rats of the operation group were randomized into 6 groups, i.e., respectively the model group; non-crystalline NB001 group (20 mg/kg, i.g.); the group of the crystal of the present invention (20 mg/kg, i.g.); morphine (2 mg/kg, i.p.); and gabapentin (100 mg/kg, i.g.). The new crystal form and non-crystalline form of the AC1 inhibitor NB001 were both formulated with sterile saline, and morphine and gabapentin were used as positive control drugs. All drugs were administered twice daily for 3 days, and the pain threshold was measured within 2 hours after the last administration on day 3
7. Assessment of rat pain behavior:
Paw withdrawal thermal latency (PWL): the PWL was measured by using a PL-200 thermal pain stimulator (8V, 50 W, with a strength of 100%). The time period since the time irradiating the middle portion of the planta pedis at the operation side of the rat with light till the time the rat lifted its leg to keep out of the light was TWL. To prevent tissue injury, a cut-off time of 80 s was set, each rat was measured for 3 times with an interval of 5 min, and the results were averaged.

[2] = system: mice treated with yeast polysaccharide; assay: Bright/dark box test, visceral pain; type: in vivo; conditions: 3 mg/kg IP
Method: The visceral pain is induced by injecting yeast polysaccharide into the mice colony, and the yeast polysaccharide is derived from Saccharomyces cerevisiae (Sigma), wherein one kind of dextran is resident on the cell wall of the yeast and is identified as a protein-carbohydrate complex. Specifically, the mice were anesthetized after inhaling 1-3% isoflurane, and then a […] suspension of yeast polysaccharide (formulated as a 30 mg/ml solution in physiological saline) was injected into the colon of the mice by using a 24 mm long plastic feed needle within 2 minutes. The control group was injected with 0.1 ml physiological saline. The yeast polysaccharide or physiological saline was injected daily for 3 days. A visceral pain behavior test was carried out according to the Laird procedure. The number of times the mice licking the abdomen within 10 minutes was recorded, excluding other grooming behaviors, stretching of whole body, pressing the abdomen against the floor, and an 1-2-second arched posture. On day 1, 7 and 14 after the injection into the colon, an open field test was carried out from 9 am to 12 pm, and the entire test was a double-blind test. Prior to the behavioral test, the mice were acclimated for 30 minutes in an observation room. The mice were placed at the middle of a new open zone (43.2×43.2×30.5 cm^3) with micro light (<50 lux) and a fan. The movement distance, vertical count, movement count, stereotypic behavior count, and jumping count of animals were recorded within 30 minutes by means of an activity monitoring system equipped with multiple pairs of packaged light beam sets.
Bright/dark box test: The test procedure was carried out by using an improved method in accordance with the prior art. The device was composed of a rectangular organic glass box (44×8.5×25 cm^3), which is separated into bright and dark compartments with the equal size by using a door. A 60 watt lamp (400 lux) in turn-on state was placed at 30 cm above the box to irradiate the bright compartment. Each animal was first placed in the dark compartment for 20 seconds, and then the door leading to the bright compartment was open. The time each animal stayed in the dark compartment and the time each animal enters the bright compartment within 10 minutes were recorded.
In order to confirm the effect of the crystal of the present invention on inhibiting anxiety, mice were subjected to a bright/dark box test, and the results were as shown in Table 8. The physiological saline, non-crystalline NB001 (3 mg/kg), the crystal of the present invention (3 mg/kg), and Gabapentin (30 mg/kg) as a positive control were intraperitoneally injected (IP) into the mice treated with yeast polysaccharide respectively. The behaviors of Mice were observed 28 days after the yeast polysaccharide treatment.

**Q.** What does the source list for `Nc1ncnc2c1ncn2CCNCCCCCO` [New NB001, 5-(((2-(6-amino)-9H-purin-9-yl)ethyl)amino)pentan-1-ol]?
**A.** analgesic effect (PWL) as compared with the model group ([1]; twice daily for 3 days, PWL at 2 h after last administration (21d)): better analgesic effect; significance of the analgesic effect (PWL), FIG. 7 ([1]; P<0.01): extremely significant; therapeutic effect in bright/dark box test as compared with the positive control group ([2]; Table 8, listed as the crystal of the present invention): extremely significant; % time in the open arm ([2]; Bright/dark box test, Visceral pain, 3 mg/kg): 10.3 ± 1.2 (8) %
